In the METLIN SMRT retention time set (Domingo-Almenara et al. 2019) one finds RP-LC retention time data, which are given here for 79 molecules.

This series can be described thus: gradient 5% acetonitrile 3 min, to 50% in 2 min, to 85% in 15 min, held 3 min, 100 µL/min. The conditions noted are these: column: Zorbax Extend-C18 2.1 x 50 mm; eluents: water / acetonitrile, 0.1% formic acid. A digest of the protocol:
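Values are retention times taken from adduct peaks that software picked and an analyst inspected. The pure standards were run as mixtures of ~100 molecules on HPLC linked to a quadrupole time-of-flight mass spectrometer, in positive and negative ionization mode. A Zorbax Extend-C18 column (2.1 × 50 mm, 1.8 μm) was used at 100 μL/min with water and acetonitrile, each including 0.1% formic acid.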
Turning to `Cc1nc(Cn2cccc2C(=O)N2CCN(c3cccc(Cl)c3)CC2)no1`, the RP-LC retention time turned out to be 974 s.
As for `CCOC(=O)c1c(CN(C)C)n(-c2ccccc2)c2cc(-c3cccnc3)c(O)cc12`, the RP-LC retention time came out at 576 s.
Next, `CCC(c1cccs1)N1C(=O)[C@H]2CN(S(=O)(=O)c3ccccc3Cl)C[C@H]2C1=O` (some centres undefined): 1000 s; `COc1ccccc1NC(=O)Cn1nc2c(Oc3cccc(Cl)c3)nccn2c1=O`: 900 s.
Take `Cc1nc2ccc(NC(=O)c3cccnc3)cc2c(=O)n1-c1ccc(F)cc1`: the RP-LC retention time turned out to be 623 s.
`O=C(Cn1nc2n(c1=O)CCCC2)NCCCc1ccccc1` came in with an RP-LC retention time of 709 s.
As for `O=C(Cn1c(-c2cccs2)cc2ccccc21)N1CCN(C(=O)c2ccco2)CC1`, the figure is 908 s; as for `CN(C)c1ncncc1N1CCC(C(=O)N2CCN(c3ccc(F)cc3)CC2)CC1`, 641 s.
Molecule `CCc1ccc(-c2nc(C3CC(=O)N(c4ccc(C)cc4)C3)no2)cc1` (centres undefined) came in with an RP-LC retention time of 1110 s.
As for `Oc1cc2c(c(Cl)c1O)CCNCC2c1ccccc1` (centres undefined), the figure is 618 s; as for `O=C(Nc1ccccc1F)NC1CCN(C(=O)N2C[C@H]3C[C@H](C2)[C@H]2CCCC(=O)N2C3)CC1`, 677 s; as for `Cc1cccc(-c2nnc(-c3cccc(S(=O)(=O)N4CCC(C)CC4)c3)o2)c1`, 1220 s.
As to `CCSc1nnc(NC(=O)c2ccc(OC)c([N+](=O)[O-])c2)s1`, the RP-LC retention time turned out to be 802 s.
`COc1ccc(C(=O)N2CCC3(CC2)N=C(c2ccc(Br)cc2)C(=O)N3)cc1`: the RP-LC retention time worked out at 889 s.
Take `O=C(NCc1ccccc1)N1CC(Oc2ccc(-c3nc(-c4ccccc4)no3)cc2)C1`: the RP-LC retention time came to 1130 s.
`C=CCn1c(=O)c2sc(N(CC)CC)nc2n(CC(=O)Nc2c(C)cccc2C)c1=O` came in with an RP-LC retention time of 830 s.
Turning to `COC(=O)c1c(-c2ccc(Cl)cc2)noc1N1CCOCC1`, the RP-LC retention time is 968 s.
As to `COc1ccc2c(c1)C=C(C(=O)Nc1ccccc1F)C=CO2`, the RP-LC retention time amounted to 1020 s.
Molecule `CCC(c1cccs1)N1C(=O)[C@H]2CN(S(=O)(=O)c3ccc(OC)cc3)C[C@H]2C1=O` (some centres undefined) showed an RP-LC retention time of 910 s.
For `O=C(CSc1nccc2c1ccn2Cc1ccc(F)cc1)NCc1ccco1`, the RP-LC retention time is 1040 s.
For the molecule `O=C(Cn1nc(N2CCCCCC2)c2ccccc2c1=O)Nc1ccc2c(c1)OCCO2`, the RP-LC retention time came to 1010 s.
Consider `CCc1cnc2c(c1SCC(=O)N(C)c1ccccc1)c(=O)n(C)c(=O)n2C`, for which the RP-LC retention time came out at 800 s.
Next, `CC(C)n1cnc(S(=O)(=O)N2CCC(C(=O)Nc3ccc4c(c3)OCCO4)CC2)c1`: 721 s.
Next, `CC(C)(C)c1csc(-c2csc(S(=O)(=O)NCc3ccc(Br)cc3)c2)n1`: 1300 s.
Take `Cc1ccn2c(NC(=O)COc3ccc(Cl)cc3)c(-c3ccc(F)cc3)nc2c1`: the RP-LC retention time turned out to be 759 s.
As for `Cc1cc(N(C)C)n2nc(CN3CCN(c4ccccc4Cl)CC3)nc2n1`, the RP-LC retention time worked out at 627 s.
In turn, `CNc1cc(C)nc2c(-c3ccc(Cl)cc3)cnn12` came in with an RP-LC retention time of 731 s.
The molecule `CC(C)N1C(=O)c2cccnc2Sc2cc(NC(=O)c3ccc(F)cc3Cl)ccc21` showed an RP-LC retention time of 916 s.
Molecule `OC(CN1CCN(c2ccccn2)CC1)c1ccc2c(c1)OCO2` (centres undefined) returned an RP-LC retention time of 539 s.
For the molecule `CCOC(=O)c1cc2ccsc2n1CC(=O)NCc1ccc(C)cc1`, the RP-LC retention time is 981 s.
Turning to `O=C(Cc1csc(Nc2ncccn2)n1)N1CCN(c2cccc(Cl)c2Cl)CC1`, the RP-LC retention time turned out to be 838 s.
`CCCS(=O)(=O)N1CC(=O)N(c2ccccc2F)C(C)(C(=O)NC2CCCCCCC2)C1` (centres undefined): the RP-LC retention time came to 997 s.
Molecule `COc1ccc(C(CNC(=O)c2cc(=O)c3cc(C)cc(C)c3o2)N(C)C)cc1` (centres undefined) had an RP-LC retention time of 675 s.
Turning to `CC1=C(c2ccc(Cl)cc2)S(=O)(=O)N=C1N1CCCN(C(=O)C2CCCO2)CC1` (centres undefined), the RP-LC retention time stood at 758 s.
As for `O=C(NCC1CCN(C(=O)c2cc3ccccc3o2)CC1)c1cc(Cl)ccc1Cl`, the figure is 841 s; as for `CCCNC(=O)c1ccc2c(=O)n(Cc3ccccc3)c(N3CCCC3)nc2c1`, 719 s.
Regarding `Cc1cc(S(=O)(=O)N2C[C@@H](F)C[C@H]2C(=O)N2CCCCC2)ccc1F`, the RP-LC retention time turned out to be 786 s.
Take `CC(=O)Nc1ccc(S(=O)(=O)N2CC=C(c3cn(C)c4ncccc34)CC2)cc1`: the RP-LC retention time came out at 764 s.
Molecule `O=C1C(c2cccnc2)N(Cc2cccs2)C(=O)CN1c1ccccc1` (centres undefined) came in with an RP-LC retention time of 661 s.
Take `COCc1ncc(C)n1CCNC(=O)NC1CCCCC1`: the RP-LC retention time is 587 s.
`CC(C)Oc1ccc(CNC(=O)CCc2c(-c3ccc(Br)cc3)nc3ccccn23)cc1` gave an RP-LC retention time of 744 s.
Take `Cn1cc2c3c(cccc31)CN(C(=O)c1cccs1)CC2`: the RP-LC retention time stood at 876 s.
For `CCc1noc(NC(C)=O)c1-c1ccc(OC)c(S(=O)(=O)NC(C)CC)c1` (centres undefined), the RP-LC retention time is 746 s.
Turning to `O=C(c1cn(-c2cc(-c3nc(C4CC4)no3)ccn2)cn1)N1CCCCC1`, the RP-LC retention time came to 810 s.
Take `O=C(NCc1cccc2ccccc12)NCC1CN(c2ccccc2)C(=O)O1` (centres undefined): the RP-LC retention time came out at 781 s.
Take `Cc1cc2nc(C(=O)Nc3cccc(C)c3C)cc(C)n2n1`: the RP-LC retention time is 1020 s.
The molecule `CCC(C)Cn1c(CNC(=O)c2ccco2)nc2ccccc21` (centres undefined) showed an RP-LC retention time of 664 s.
Consider `CCOC(=O)c1c(C)[nH]c(CCC(=O)NC(C)CC)c1C` (centres undefined), for which the RP-LC retention time is 762 s.
As for `O=C(COC(=O)c1ccco1)Nc1ccc2c(c1)OCO2`, the figure is 688 s.
As for `CC1CCN(C(=O)C2CC(=O)N(c3ccccc3)C2)CC1` (centres undefined), the figure is 764 s.
In the case of `CN1C(=O)c2ccccc2Oc2ccc(C(=O)N3CCC4(CC3)OCCO4)cc21`, the RP-LC retention time was 741 s.
`O=C1CCCC(=O)N1CCS(=O)(=O)N1CCN(c2cccc(Cl)c2Cl)CC1` returned an RP-LC retention time of 887 s.
Consider `CC(=O)N1CCc2nn(CC(=O)Nc3ccc(F)c(F)c3)c(=O)cc2C1`, for which the RP-LC retention time turned out to be 644 s.
`COc1cccc(/C=C/c2nccc3ccccc23)c1OC` displayed an RP-LC retention time of 768 s.
In turn, `CC(=O)Nc1cccc(N2CC(C(=O)Nc3ccc(Br)c(C)c3)CC2=O)c1` (centres undefined) displayed an RP-LC retention time of 703 s.
`COc1ccc(C2(c3nc(CCS(=O)(=O)c4ccccc4)no3)CC2)cc1`: the RP-LC retention time came out at 959 s.
The molecule `Cc1cc(C(=O)NCCCSC2CCCCC2)n(-c2ccccc2)n1` came in with an RP-LC retention time of 1030 s.
Consider `CCOC(=O)Cc1csc(NC(=O)C2CCCN(c3ncnc4c3nc3n4CCCCC3)C2)n1` (centres undefined), for which the RP-LC retention time came out at 810 s.
With `COc1ccc(NC(=O)c2c(C)oc3nc(C)nc(N4CCOCC4)c23)c(OC)c1`, the RP-LC retention time stood at 818 s.
On to `Cc1cc(C)cc(NC(=O)NCCc2cn(CC(C)C)c3ncccc23)c1`, for which the RP-LC retention time amounted to 905 s.
`CCc1cccc(NC(=O)Cn2nc3cc(C)nc(-c4ccccc4)n3c2=O)c1` returned an RP-LC retention time of 899 s.
For the molecule `CCN(CC)CCNC(=O)COc1ccc(Cl)cc1`, the RP-LC retention time is 694 s.
For `CCc1nc2cc(-c3noc(-c4ccc(OC)c(OC)c4)n3)ccc2o1`, the RP-LC retention time amounted to 1080 s.
Take `Cc1nc2cccnc2n1CC1CCCN(S(=O)(=O)c2ccc3c(c2)CCC3)C1` (centres undefined): the RP-LC retention time worked out at 765 s.
In the case of `CCc1ccccc1S(=O)(=O)N1C[C@@H]2C(=O)N(C(CC)c3cccs3)C(=O)[C@@H]2C1` (some centres undefined), the RP-LC retention time came to 1070 s.
For the molecule `CCOCCCNC(=O)C1CCCN(S(=O)(=O)c2ccc3c(ccn3C)c2)C1` (centres undefined), the RP-LC retention time worked out at 788 s.
`CCOCCCNC(=O)C1CCN(C2=NS(=O)(=O)C(c3ccc(C(C)C)cc3)=C2C)CC1` displayed an RP-LC retention time of 858 s.
`CCCn1ccc2sc(C)c(C(=O)N3CCN(c4ccc(F)cc4)CC3)c2c1=O` returned an RP-LC retention time of 872 s.
Consider `O=C(CSc1ccc(S(=O)(=O)c2ccccc2)nn1)Nc1ccc2c(c1)OCCO2`, for which the RP-LC retention time was 821 s.
`CN(C)S(=O)(=O)N1CC(c2noc(-c3cccnc3)n2)C2(CCOCC2)C1` (centres undefined) returned an RP-LC retention time of 713 s.
Regarding `O=C(Nc1cnc(-c2ccc(Cl)cc2)nc1)c1cccs1`, the RP-LC retention time was determined as 1040 s.
In turn, `COc1cc(C(=O)N2CCCC2c2nc(-c3ccccc3Cl)no2)cc(OC)c1OC` (centres undefined) came in with an RP-LC retention time of 906 s.
With `COc1ccc(CC(=O)Nc2ccc3ncnc(N4CCCC4)c3c2)cc1Cl`, the RP-LC retention time is 680 s.
Molecule `O=C(Cn1c(=O)c2cc(C3CC3)nn2c2ncccc21)NCc1ccc(Cl)cc1` registered an RP-LC retention time of 791 s.
`Cc1ccc(CNC(=O)c2ccc3ccnc(N4CCN(c5ccc(Cl)cc5)CC4)c3c2)o1` displayed an RP-LC retention time of 887 s.
As for `CCCN(CC1CCOC1)C(=O)Nc1ccccc1Cl` (centres undefined), the figure is 846 s; as for `Cc1oc(-c2[nH]ncc2C(=O)N(C)C)cc1S(=O)(=O)Nc1cc(F)cc(F)c1`, 890 s.
Next, `O=C(CN1C(=O)CCCc2cc(S(=O)(=O)N3CCCCCC3)ccc21)Nc1cccc(F)c1`: 988 s; `COc1ccccc1N1CCN(c2cc(SCC(=O)Nc3ccccc3Cl)ncn2)CC1`: 1110 s.
